Measured values published in PubChem BioAssay AID248 (DTP/NCI, 2004).
Where “and” joins values, the source holds several entries; their conditions need not be identical. Identical values can stand only once. Toxic doses and inconclusive results are not listed. Cut-off read from the data, not from the text of the source: active = T/C of 150% or more; inactive = T/C below 125%.

Test system: L1210 leukemia ip in BDF1 mice, survival T/C
Experiment: NCI In Vivo Anticancer Drug Screen. Data for tumor model L1210 Leukemia (intraperitoneal) in B6D2F1 (BDF1) mice
Conditions: endpoint: mean survival time, higher = longer survival
Outline: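 Survival endpoint. Drug-treated group vs vehicle group, expressed as T divided by C. Tumor passaged by transplantation.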

[1] = dose: 100.0 mg/kg/injection, schedule: Q01DX009 (ip), vehicle: saline with Tween-80
[2] = dose: 100.0 mg/kg/injection, schedule: Q04DX003 (ip), vehicle: saline with Tween-80
[3] = dose: 200.0 mg/kg/injection, schedule: Q01DX009 (ip), vehicle: saline with Tween-80
[4] = dose: 200.0 mg/kg/injection, schedule: Q04DX003 (ip), vehicle: saline with Tween-80
[5] = dose: 400.0 mg/kg/injection, schedule: Q04DX003 (ip), vehicle: saline with Tween-80
[6] = dose: 100.0 mg/kg/injection, schedule: Q04DX002 (ip), vehicle: Klucel (hydroxypropylcellulose) (HPC)
[7] = dose: 200.0 mg/kg/injection, schedule: Q04DX002 (ip), vehicle: Klucel (hydroxypropylcellulose) (HPC)
[8] = dose: 400.0 mg/kg/injection, schedule: Q04DX002 (ip), vehicle: Klucel (hydroxypropylcellulose) (HPC)
[9] = dose: 100.0 mg/kg/injection, schedule: Q01DX009 (ip), vehicle: saline
[10] = dose: 200.0 mg/kg/injection, schedule: Q01DX009 (ip), vehicle: saline
[11] = dose: 100.0 mg/kg/injection, schedule: Q01DX009 (ip), vehicle: Klucel (hydroxypropylcellulose) (HPC)
[12] = dose: 200.0 mg/kg/injection, schedule: Q01DX009 (ip), vehicle: Klucel (hydroxypropylcellulose) (HPC)
[13] = dose: 400.0 mg/kg/injection, schedule: Q01DX009 (ip), vehicle: Klucel (hydroxypropylcellulose) (HPC)
[14] = dose: 100.0 mg/kg/injection, schedule: Q04DX003 (ip), vehicle: Klucel (hydroxypropylcellulose) (HPC)
[15] = dose: 200.0 mg/kg/injection, schedule: Q04DX003 (ip), vehicle: Klucel (hydroxypropylcellulose) (HPC)
[16] = dose: 400.0 mg/kg/injection, schedule: Q04DX003 (ip), vehicle: Klucel (hydroxypropylcellulose) (HPC)
[17] = dose: 12.5 mg/kg/injection, schedule: Q01DX009 (ip), vehicle: Klucel (hydroxypropylcellulose) (HPC)
[18] = dose: 25.0 mg/kg/injection, schedule: Q01DX009 (ip), vehicle: Klucel (hydroxypropylcellulose) (HPC)
[19] = dose: 100.0 mg/kg/injection, schedule: Q04DX003 (ip), vehicle: saline
[20] = dose: 200.0 mg/kg/injection, schedule: Q04DX003 (ip), vehicle: saline
[21] = dose: 400.0 mg/kg/injection, schedule: Q04DX003 (ip), vehicle: saline
[22] = dose: 50.0 mg/kg/injection, schedule: Q01DX009 (ip), vehicle: Klucel (hydroxypropylcellulose) (HPC)

Measured: T/C

O=[N+]([O-])CC(NNC(C[N+](=O)[O-])C(Cl)(Cl)Cl)C(Cl)(Cl)Cl (stereo not given)
inactive: [1] 96 % of control | [2] 89 % of control | [3] 91 % of control | [4] 94 % of control | [5] 90 % of control

Cc1c(N)cc([N+](=O)[O-])c(C)c1[N+](=O)[O-]
inactive: dose: 50.0 mg/kg/injection, schedule: Q04DX003 (ip), vehicle: saline with Tween-80 100 % of control | [2] 96 % of control | [4] 100 % of control

C/C=C/C(=O)Nc1ccc(Cl)c(Cl)c1
inactive: [6] 94 % of control | [7] 90 % of control | [8] 90 % of control

CCCCCCCCC(SC#N)C(CCCCCCCC(=O)O)SC#N (stereo not given)
inactive: [6] 100 % of control | [7] 95 % of control | [8] 106 % of control

CN(C)c1ccc2oc(=O)c3ccccc3c2c1
inactive: dose: 50.0 mg/kg/injection, schedule: Q01DX001 (ip), vehicle: carboxymethylcellulose (CMC) 100 % of control | dose: 100.0 mg/kg/injection, schedule: Q01DX001 (ip), vehicle: carboxymethylcellulose (CMC) 92 % of control | dose: 200.0 mg/kg/injection, schedule: Q01DX001 (ip), vehicle: carboxymethylcellulose (CMC) 100 % of control | dose: 400.0 mg/kg/injection, schedule: Q01DX001 (ip), vehicle: carboxymethylcellulose (CMC) 94 % of control

CC1OCC(C)(CO)CO1 (stereo not given)
inactive: dose: 50.0 mg/kg/injection, schedule: Q01DX009 (ip), vehicle: saline 102 % of control | [9] 101 % of control | dose: 100.0 mg/kg/injection, schedule: Q04DX003 (ip), vehicle: acetone 106 % of control | [10] 98 % of control | dose: 200.0 mg/kg/injection, schedule: Q04DX003 (ip), vehicle: acetone 122 % of control | dose: 400.0 mg/kg/injection, schedule: Q04DX003 (ip), vehicle: acetone 111 % of control

CCCCCCCCC(=O)Nc1nc2nc[nH]c2c(=O)[nH]1
inactive: dose: 100.0 mg/kg/injection, schedule: Q01DX001 (ip), vehicle: other 94 % of control | [11] 94 % of control | dose: 200.0 mg/kg/injection, schedule: Q01DX001 (ip), vehicle: other 86 % of control | [12] 90 % of control | dose: 400.0 mg/kg/injection, schedule: Q01DX001 (ip), vehicle: other 86 % of control | [13] 90 % of control

CCOC(=O)Nc1nc2nc[nH]c2c(NC(c2ccccc2)c2ccccc2)c1Br
inactive: [6] 91 % of control | [7] 91 % of control | [8] 86 % of control

Cc1cc(C)c(-c2c(C)cc(C)cc2CBr)c(CBr)c1
inactive: [11] 108 % of control | [12] 99 % of control | [13] 99 % of control

COc1ccc(SC2=C(N(C)C(C)=O)C(=O)c3ccccc3C2=O)cc1
inactive: dose: 7.5 mg/kg/injection, schedule: Q01DX009 (ip), vehicle: Klucel (hydroxypropylcellulose) (HPC) 89 % of control | dose: 15.0 mg/kg/injection, schedule: Q01DX001 (ip), vehicle: Klucel (hydroxypropylcellulose) (HPC) 93 % of control | dose: 15.0 mg/kg/injection, schedule: Q01DX009 (ip), vehicle: Klucel (hydroxypropylcellulose) (HPC) 92 % of control | dose: 30.0 mg/kg/injection, schedule: Q01DX001 (ip), vehicle: Klucel (hydroxypropylcellulose) (HPC) 88 % of control | dose: 30.0 mg/kg/injection, schedule: Q01DX009 (ip), vehicle: Klucel (hydroxypropylcellulose) (HPC) 89 % of control

CCCCN=Cc1ccccc1
inactive: [1] 114 % of control | [2] 96 % of control | [3] 90 % of control | [4] 87 % of control | [5] 103 % of control

COc1ccc(CCN=C(N)CCl)cc1
inactive: dose: 100.0 mg/kg/injection, schedule: Q04DX002 (ip), vehicle: saline 95 % of control | dose: 200.0 mg/kg/injection, schedule: Q04DX002 (ip), vehicle: saline 106 % of control

Cc1ccc(S(=O)(=O)Nc2ccc3nc(C)oc3c2)cc1
inactive: [1] 100 % of control | [2] 96 % of control | [3] 102 % of control | [4] 91 % of control | dose: 400.0 mg/kg/injection, schedule: Q01DX009 (ip), vehicle: saline with Tween-80 93 % of control | [5] 89 % of control

O=S(c1ccccc1)c1ccccc1
inactive: dose: 75.0 mg/kg/injection, schedule: Q01DX009 (ip), vehicle: Klucel (hydroxypropylcellulose) (HPC) 98 % of control | [6] 102 % of control | dose: 150.0 mg/kg/injection, schedule: Q01DX009 (ip), vehicle: Klucel (hydroxypropylcellulose) (HPC) 102 % of control | [7] 98 % of control | dose: 300.0 mg/kg/injection, schedule: Q01DX009 (ip), vehicle: Klucel (hydroxypropylcellulose) (HPC) 95 % of control | [8] 112 % of control

O=C(N/C=C/NC(=O)Nc1ccc([N+](=O)[O-])cc1)Nc1ccc([N+](=O)[O-])cc1
inactive: [14] 100 % of control | [15] 89 % of control | [16] 92 % of control

C=C(Br)CNCCCCCC
inactive: [17] 94 % of control | [18] 111 % of control

C1CCC(C2OCCO2)CC1
inactive: [9] 98 % of control | [19] 97 % of control | [10] 118 % of control | [20] 94 % of control | dose: 400.0 mg/kg/injection, schedule: Q01DX009 (ip), vehicle: saline 88 % of control | [21] 92 % of control

Cc1ccc(S(=O)(=O)ON=C2c3ccccc3-c3ccccc32)cc1
inactive: [18] 96 % of control | [22] 96 % of control | dose: 100.0 mg/kg/injection, schedule: Q01DX001 (ip), vehicle: Klucel (hydroxypropylcellulose) (HPC) 101 % of control | [11] 100 % of control | [14] 98 % of control | dose: 200.0 mg/kg/injection, schedule: Q01DX001 (ip), vehicle: Klucel (hydroxypropylcellulose) (HPC) 99 % of control | [12] 88 % of control and 91 % of control | [15] 93 % of control | dose: 400.0 mg/kg/injection, schedule: Q01DX001 (ip), vehicle: Klucel (hydroxypropylcellulose) (HPC) 105 % of control | [16] 103 % of control

CCOC(=O)c1c(O)[nH]c(=O)c(Br)c1C
inactive: dose: 100.0 mg/kg/injection, schedule: Q01DX001 (ip), vehicle: saline 109 % of control | [19] 89 % of control | dose: 200.0 mg/kg/injection, schedule: Q01DX001 (ip), vehicle: saline 120 % of control | [20] 89 % of control | dose: 400.0 mg/kg/injection, schedule: Q01DX001 (ip), vehicle: saline 117 % of control | [21] 90 % of control

COC1/C=C/OC2(C)Oc3c(C)c(O)c4c(O)c(c(/C=N/N5CCN(Cc6ccccc6)CC5)c(O)c4c3C2=O)NC(=O)C(C)=C/C=C/C(C)C(O)C(C)C(O)C(C)C(OC(C)=O)C1C (stereo not given)
inactive: dose: 3.13 mg/kg/injection, schedule: Q01DX009 (ip), vehicle: Klucel (hydroxypropylcellulose) (HPC) 91 % of control | dose: 6.25 mg/kg/injection, schedule: Q01DX009 (ip), vehicle: Klucel (hydroxypropylcellulose) (HPC) 100 % of control | [17] 91 % of control | [18] 97 % of control | [22] 95 % of control and 110 % of control

C/C(=N\OCc1cc2c(cc1Cl)OCO2)C(=O)O
inactive: [2] 100 % of control | [4] 99 % of control | [5] 91 % of control
